Experimental data reported in US6809106B1, “Quinoline derivatives as inhibitors of MEK enzymes” (AstraZeneca AB, priority 1999, dated 2004).
pIC50: −log10 of the molar value.

Key:
[1] = test system: HT29 human colon tumour cells; experiment: Cell proliferation assays; format: cell-based; conditions: 72 hours incubation
Method: Cell Proliferation Assays
Cells were seeded into multi-well plates at 20 000-40 000 cells/ml in growth medium containing 5% FCS and incubated overnight at 37° C. The compounds were prepared in fresh medium at an appropriate concentration and added to the wells containing the cells. These were then incubated for a further 72 hours. Cells were then either removed from the wells by incubating with trypsin/EDTA and counted using a Coulter counter, or treated with KIT/PMS in PBSA and optical densities read at […].

[2] = biological target: human p45MEK1 (GST-MEK) (Homo sapiens, UniProt Q02750); experiment: Assay for inhibitors of the MAP kinase pathway (coupled GST-MEK/GST-MAPK/MBP 33P assay); format: biochemical; conditions: GST-MEK activated by c-raf, MBP substrate, 8.33 μM ATP
Chain of human p45MEK1 (GST-MEK) (Q02750 whole entry): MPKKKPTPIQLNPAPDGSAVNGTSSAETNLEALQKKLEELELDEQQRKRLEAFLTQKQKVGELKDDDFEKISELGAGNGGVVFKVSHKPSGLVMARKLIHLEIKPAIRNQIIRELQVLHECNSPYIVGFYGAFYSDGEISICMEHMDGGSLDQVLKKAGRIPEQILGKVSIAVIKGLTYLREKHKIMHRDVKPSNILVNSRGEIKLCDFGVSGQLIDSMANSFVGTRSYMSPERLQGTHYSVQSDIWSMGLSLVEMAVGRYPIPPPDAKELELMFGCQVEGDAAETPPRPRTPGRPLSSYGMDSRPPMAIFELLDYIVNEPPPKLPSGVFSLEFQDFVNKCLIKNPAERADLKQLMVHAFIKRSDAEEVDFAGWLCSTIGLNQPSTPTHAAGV
Method: Assay for Inhibitors of the MAP Kinase Pathway
To evaluate inhibitors of the MAPK pathway a coupled assay was carried out which measures phosphorylation of serine/threonine residues present in the substrate in the presence or absence of inhibitor. Recombinant glutathione S-transferase fusion protein containing human p45MEK1 (GST-MEK) was activated by c-raf (Sf9 insect cell lysate from triple baculoviral infection with c-raf/ras/lck) and used for the assay. Active GST-MEK was first used to activate a recombinant glutathione S-transferase fusion protein containing p44MAP kinase (GST-MAPK) in the presence of ATP and Mg^2+ for 60min at room temperature in the presence or absence of potential inhibitors. The activated GST-MAPK was then incubated with myelin basic protein (MBP) as substrate for 10 min at room temperature in the presence of ATP, Mg^2+ and ^33P-ATP. The reaction was stopped by addition of 20% v/v phosphoric acid. Incorporation of ^33P into the myelin basic protein was determined by capture of the substrate on a filter mat, washing and counting using scintillation methods. The extent of inhibition was determined by comparison with untreated controls.
The final assay solution contained 10 mM Tris, pH 7.5, 0.05 mM EGTA, 8.33 μM [γ^33P]ATP, 8.33 mM Mg(OAc)2, 0.5 mM sodium orthovanadate, 0.05% w/v BSA, 6.5 ng GST-MEK, 1 μg GST-MAPK and 16.5 μg MBP in a reaction volume of […].

Row | pIC50 [1] | pIC50 [2] | Compound
1 | 5.47 |  | COc1cc2ncc(Cl)c(Nc3ccc(Oc4ccccc4OC)cc3)c2cc1OC [Compound 1, 4-(2-methoxyphenoxy)-anilino-3-chloro-6,7-dimethoxyquinoline]
2 |  | 5.82 | COc1cc2ncc(Cl)c(Nc3ccc(Cl)c(Cl)c3)c2cc1OC [Compound 5]
